The values below come from US20150216182A1, “COMPOSITIONS AND METHODS OF THE ATTRACTION AND REPULSION OF INSECTS” (Olfactor Laboratories, Inc., priority 2012, published 2015).

One test relates to cpA neurons. Briefly: extracellular single-sensillum electrophysiology: activation of cpA neuronal activity. The conditions noted are these: for Class: Table 6, single compounds, increase over baseline cpA neuronal activity; for Comp A Class / Comp B Class: Table 9; for Comp A Class: component A tested individually; for Comp B Class: component B tested individually; for Class B (activator class of the individual component): Table 15, single component alone, Mod Actv.

Test [1] has as its system bed bugs (Cimex lectularius). Nature of the test: bed bug repellency assay. It is filed as in vivo. To be noted: compound or combination on filter paper harborage, ten bed bugs. The method, then:
Compounds and combinations of compounds of the present invention were assayed for their ability to repel bed bugs (Cimex lectularius) using a bed bug repellency assay. This assay takes advantage of the bed bug's natural tendency to seek harborage. Two petri dishes were obtained and the inner areas of each were sanded down (leaving the perimeter smooth.) Talc was applied on the perimeter and on the inside walls of the petri dishes with a small paint brush to prevent bed bugs from escaping. A cut off top portion of a solo bathroom cup was placed upside down in the center of one petri dish. A large plastic secondary container was gathered and a paper towel was laid down inside the bottom. The petri dish was then placed inside and ten bed bugs were placed inside the cut off portion of the solo cup. Next, two pieces of filter paper were cut down the middle to yield 4 equally sized halves. 3 pieces were placed inside a glass dish ([…]) and the remaining piece was placed in a separate dish. All 4 pieces were folded down the middle to create a “tent” or “harborage” when laid such that the folded crease faced up. 100 microliters of isopropyl alcohol was pipetted into 3 pieces of filter paper (all housed in the first glass dish.) In a separate 4 ml vial, 90 microliters of isopropyl alcohol was combined and vortexed with 10 microliters of the compound or compound combination being tested. 100 microliters of this solution [comprising a total of 100 mg of compound(s)] was pipetted onto the filter paper in the separate dish. All filter papers were then allowed to dry. Once dry, experiments were conducted first with two filter paper halves comprising only the isopropyl alcohol (control experiment) and then with the remaining filter paper halves [one with only isopropyl alcohol and one comprising the test compound(s).] Filter paper halves were placed on opposing sides of experimental petri dishes and bed bugs were allowed to move freely within the dishes for 5 minutes. Movement of bed bugs beneath each filter paper tent was recorded. […] In the Table, “Rep” refers to repellency and “Cmpd” refers to compound.

The subject of a further test is larvae. Nature of the test: larvicidal activity assay. The class given is in vivo. To be noted: for pest or weed control at 0.25 %: read-out: % Lethality with 0.25% compound conc.; for pest or weed control at 100 ppm: read-out: % Lethality at 100 ppm. How it is done: A 6-well plate (Corning Life Sciences, Tewksbury, Mass.) is used to test a compound's larvicidal activity. […] After a 24 hour exposure, the number of dead larvae are counted and recorded.
The results are presented in Table 17 as % lethality (the number of dead larvae divided by the total number of larvae).

The test system of a further test is female mosquitoes. Briefly: whole plant or invertebrate. To be noted: 2 h; for mortality at 200 µg/mL: read-out: % mortality with 0.2 mg/ml; for mortality at 2000 µg/mL: read-out: % mortality with 2 mg/ml.
[2] abbreviates: 0.25% compound, 24 hour exposure, dead larvae / total larvae.
The mark [3] stands for this setting: 100 ppm compound, 24 hour exposure, dead larvae / total larvae.

Read-outs that look alike come from different tables or passages of the source.

Take `CC(=O)c1ccc(C)o1` [OLI0016, 2-acetyl-5-methyl furan]: in the test with cpA neurons, the Class entry is “Moderate Activator (Moderate activators yield an increase in neuronal activity that is between 40 and 60 spk/sec over baseline neuronal activity)”; the “Comp A Class” value is given as “Mod”; the “Comp B Class” value is given as “Mod”; the “Class B (activator class of the individual component)” value (shortened to “Class B”) is on record as “Mod”. Besides, the “% Rep (bed bug repellency)” value in test [1] came out at 86%. The pest or weed control at 0.25 % with larvae (setting [2]) was determined as 100%. In addition, the pest or weed control at 100 ppm with larvae (setting [3]) is 0%. For the same molecule, in the test on female mosquitoes, the mortality at 200 µg/mL is 0% and the mortality at 2000 µg/mL was determined as 0%.

`CC(=O)c1ccco1` [OLI0017, 2-furyl methyl ketone]: in the test on cpA neurons, the Class result was “Moderate Activator (Moderate activators yield an increase in neuronal activity that is between 40 and 60 spk/sec over baseline neuronal activity)”; the “Comp A Class” value is given as “Mod”; the “Class B” value is “Mod”. The “% Rep (bed bug repellency)” value in test [1] worked out at 60%. In addition, the pest or weed control at 0.25 % with larvae (setting [2]) is 100%. Besides, in the test with larvae (setting [3]), the pest or weed control at 100 ppm was determined as 50%. In addition, in the test with female mosquitoes, the mortality at 200 µg/mL turned out to be 0% and the mortality at 2000 µg/mL came out at 0%.

Turning to `C=CCOC(=O)CCC` [OLI0019, allyl butyrate], in the test with cpA neurons, the Class entry was “Moderate Activator (Moderate activators yield an increase in neuronal activity that is between 40 and 60 spk/sec over baseline neuronal activity)”; the “Comp B Class” value is listed as “Mod”; the “Class B” value is reported as “Mod”. For the same molecule, in test [1], the “% Rep (bed bug repellency)” value is 8%. In the test on larvae (setting [2]), the pest or weed control at 0.25 % came to 100%. In the test on larvae (setting [3]), the pest or weed control at 100 ppm was 0%. In addition, in the test on female mosquitoes, the mortality at 200 µg/mL stood at 0% and the mortality at 2000 µg/mL amounted to 0%.

Consider `CCCC(O)CC(=O)OCC` (stereo not shown) [OLI0021, ethyl 3-hydroxyhexanoate], for which, in the test with cpA neurons, the Class result was “Moderate Activator (Moderate activators yield an increase in neuronal activity that is between 40 and 60 spk/sec over baseline neuronal activity)”; the “Comp A Class” value is reported as “Mod”; the “Comp B Class” value is reported as “Mod”; the “Class B” value is recorded as “Mod”. Also, in test [1], the “% Rep (bed bug repellency)” value is reported as 100%. In the test with larvae (setting [2]), the pest or weed control at 0.25 % is 0%. In addition, the pest or weed control at 100 ppm in the test with larvae (setting [3]) worked out at 0%. In the test with female mosquitoes, the mortality at 200 µg/mL was determined as 0% and the mortality at 2000 µg/mL was found to be 75%.

Take `c1ccc2[nH]ccc2c1` [OLI0052, indole]: the Class entry with cpA neurons is “Mild Activator (mild activators yield an increase in neuronal activity that is between 20 and 40 spk/sec over baseline neuronal activity)”. Also, in test [1], the “% Rep (bed bug repellency)” value is 100%. In addition, in the test with larvae (24 h), the pest or weed control at 100 ppm came out at 100% and the pest or weed control at 0.25 % was 100%. In the test with female mosquitoes, the mortality at 200 µg/mL came to 0% and the mortality at 2000 µg/mL was 100%.

As for `O=C/C=C/c1ccccc1` [OLI0065, trans-cinnamaldehyde], the Class entry in the test with cpA neurons was “Mild Activator (mild activators yield an increase in neuronal activity that is between 20 and 40 spk/sec over baseline neuronal activity)”. Further, the “% Rep (bed bug repellency)” value in test [1] came out at 100%. Besides, in the test on larvae (24 h), the pest or weed control at 100 ppm amounted to 0% and the pest or weed control at 0.25 % came to 100%. Besides, in the test on female mosquitoes, the mortality at 200 µg/mL came out at 0% and the mortality at 2000 µg/mL was determined as 0%.

In the case of `CCCCC=O` [OLI0066, valeraldehyde], the Class result in the test with cpA neurons is “Mild Activator (mild activators yield an increase in neuronal activity that is between 20 and 40 spk/sec over baseline neuronal activity)”. Further, in test [1], the “% Rep (bed bug repellency)” value was 33%. Also, in the test with larvae (setting [2]), the pest or weed control at 0.25 % came out at 35%. For the same molecule, the pest or weed control at 100 ppm in the test on larvae (setting [3]) was found to be 0%. Moreover, in the test with female mosquitoes, the mortality at 200 µg/mL amounted to 0% and the mortality at 2000 µg/mL was 0%.
